Test results published in ChEMBL document CHEMBL5523668, “Elongation of N6-benzyladenosine scaffold via Pd-catalyzed C-C bond formation leads to derivatives with antiflaviviral activity” (Bioorg Med Chem, 2024).
Active and inactive are the calls of the source. The rule behind the calls is not given here.

Experiments:
[1] = tested on: Tick-borne encephalitis virus; test: Antiviral activity against TBEV infected in porcine PEK cells assessed as reduction in cytopathic effect by plaque reduction assay; assay type: functional, organism-based
[2] = tested on: Yellow fever virus; test: Antiviral activity against YFV infected in African green monkey Vero cells assessed as reduction in cytopathic effect by plaque reduction assay; assay type: functional, organism-based
[3] = Cytotoxicity against porcine PEK cells assessed as reduction in cell viability after 7 days by resazurin staining based analysis; assay type: toxicity, Sus scrofa; conditions: pig, time 7 day
[4] = Cytotoxicity against African green monkey Vero cells assessed as reduction in cell viability after 7 days by resazurin staining based analysis; assay type: toxicity; conditions: chlorocebus sabaeus, time 7 day
[5] = tested on: West Nile virus; test: Antiviral activity against WNV infected in African green monkey Vero cells assessed as reduction in cytopathic effect by plaque reduction assay; assay type: functional, organism-based
[6] = tested on: Tick-borne encephalitis virus; test: Antiviral activity against TBEV infected in human A549 cells assessed as inhibition of virus induced cytopathic effect; assay type: functional, organism-based
[7] = Selectivity index, ratio of CC50 for human A549 cells to EC50 for TBEV infected in human A549 cells; assay type: toxicity, cell-based; conditions: read-out: Ratio CC50/EC50
[8] = tested on: Tick-borne encephalitis virus; test: Antiviral activity against TBEV infected in porcine PS cells pretreated with cells followed by viral infection and measured after 3 days post infection by microscope based analysis; assay type: functional, organism-based
[9] = Cytotoxicity against human RD cells; assay type: toxicity, cell-based
[10] = tested on: Enterovirus A71; test: Antiviral activity against human EV71 BrCr infected human RD cells assessed as reduction in cytopathic effect pretreated with cells followed by viral infection and measured after 3 to 4 days post infection; assay type: functional, organism-based; conditions: Enterovirus A
[11] = tested on: West Nile virus; test: Antiviral activity against WNV NY99 infected in African green monkey Vero cells pretreated with cells for 16 hrs followed by viral infection for 1 hr and measured after 48 hrs by plaque assay; assay type: functional, organism-based
[12] = tested on: Tick-borne encephalitis virus; test: Antiviral activity against TBEV infected in human A549 cells assessed as reduction in cytopathic effect pretreated with cells for 1 hr followed by viral infection and measured after 3 days; assay type: functional, organism-based
[13] = tested on: Tick-borne encephalitis virus; test: Antiviral activity against TBEV infected in porcine PS cells assessed as inhibition of virus induced cytopathic effect pre-infected with virus followed by compound addition and measured after 3 to 4 days by microscope based analysis; assay type: functional, organism-based
[14] = tested on: West Nile virus; test: Antiviral activity against WNV infected in African green monkey Vero cells assessed as viral growth inhibition pre-treated with compound for 2 hrs followed by viral infection and measured 24 hrs post infection; assay type: functional, organism-based; conditions: time 26.0 hrs
[15] = tested on: West Nile virus; test: Antiviral activity against WNV infected in African green monkey Vero cells assessed as viral growth inhibition pre-infected with virus for 2 hrs followed by compound addition and measured after compound washout at 5 hrs post infection; assay type: functional, organism-based; conditions: time 3.0 hrs
[16] = tested on: West Nile virus; test: Antiviral activity against WNV infected in African green monkey Vero cells assessed as viral growth inhibition pre-infected with virus for 2 hrs followed by compound addition and measured 24 hrs post infection by time of addition assay; assay type: functional, organism-based; conditions: time 22.0 hrs
[17] = tested on: West Nile virus; test: Antiviral activity against WNV infected in African green monkey Vero cells assessed as viral growth inhibition pre-infected with virus for 5 hrs followed by compound addition and measured 24 hrs post infection; assay type: functional, organism-based; conditions: time 19.0 hrs
[18] = tested on: West Nile virus; test: Antiviral activity against WNV infected in African green monkey Vero cells assessed as viral growth inhibition measured after 24 hrs; assay type: functional, organism-based
[19] = Cytotoxicity against African green monkey Vero cells assessed as reduction in cell viability after 24 hrs by resazurin staining based analysis; assay type: toxicity; conditions: chlorocebus sabaeus
[20] = Cytotoxicity against porcine PEK cells assessed as reduction in cell viability after 24 hrs by resazurin staining based analysis; assay type: toxicity, Sus scrofa; conditions: pig
[21] = tested on: Tick-borne encephalitis virus; test: Antiviral activity against TBEV infected in porcine PS cells assessed as r inhibition of virus induced cytopathic effect pretreated with cells for 24 hrs followed by viral infection for 24 hrs and measured after 72 hrs post infection; assay type: functional, organism-based
[22] = tested on: Tick-borne encephalitis virus; test: Antiviral activity against TBEV infected in porcine PEK cells pre-infected for 1 hr followed by cell addition for 1 hrs and measured after 6 days; assay type: functional, organism-based
[23] = tested on: West Nile virus; test: Antiviral activity against WNV infected in African green monkey Vero cells; assay type: functional, organism-based

SMILES | EC50 [1] [µM] | EC50 [2] [µM] | CC50 at 168 h [3] [µM] | CC50 at 168 h [4] [µM] | EC50 [5] [µM] | other results
OC[C@H]1O[C@@H](n2cnc3c(NCc4ccc(C#Cc5cc(C(F)(F)F)cc(C(F)(F)F)c5)cc4)ncnc32)[C@H](O)[C@@H]1O | 2.2 | 5.6 | 8.1 | 15.7 | 1.5 | 
OC[C@H]1O[C@@H](n2cnc3c(NCc4ccccc4C(F)(F)F)ncnc32)[C@H](O)[C@@H]1O | > 50 | > 50 | > 50 | > 50 | 7.7 | 
CCC(CC)COC(=O)[C@H](C)N[P@](=O)(OC[C@H]1O[C@@](C#N)(c2ccc3c(N)ncnn23)[C@H](O)[C@@H]1O)Oc1ccccc1 [REMDESIVIR] |  |  |  |  |  | EC50 ([6]; Tick-borne encephalitis virus, A549): 2.1 µM; EC50 ([6]; a549): 3.5 µM; selectivity ratio [7]: 4.8
OC[C@H]1O[C@@H](n2cnc3c(NCc4ccc(C#CC5CC5)cc4)ncnc32)[C@H](O)[C@@H]1O | > 50 | > 50 | > 50 | > 50 | 32 | 
[N-]=[N+]=N[C@]1(CO)O[C@@H](n2ccc(N)nc2=O)[C@H](O)[C@@H]1O [4'-AZIDOCYTIDINE] |  |  |  |  |  | EC50 [8]: 2.7 µM
OC[C@H]1O[C@@H](n2cnc3c(NCc4c(F)cccc4F)ncnc32)[C@H](O)[C@@H]1O |  |  |  |  |  | CC50 [9]: > 245 µM; EC50 [10]: 0.21 µM
OC[C@H]1O[C@@H](n2cnc3c(NCc4ccc(-c5ccc(C(F)(F)F)cc5)cc4)ncnc32)[C@H](O)[C@@H]1O | 4.7 | 27 | 26 | 28.5 | 8.3 | 
NC(=O)c1nc(F)cnc1O [FAVIPIRAVIR] |  |  |  | > 1000 |  | EC50 [11]: 94 µM
C#C[C@@]1(O)[C@H](O)[C@@H](CO)O[C@H]1n1ccc2c(N)ncnc21 |  |  |  |  |  | EC50 [12]: 0.2 µM
C[C@@]1(O)[C@H](O)[C@@H](CO)O[C@H]1n1cnc2c(N)ncnc21 |  |  |  |  |  | EC50 [13]: 7.1 µM
OC[C@H]1O[C@@H](n2cnc3c(NCc4ccc(C#CC5=CCCCC5)cc4)ncnc32)[C@H](O)[C@@H]1O | 10 | 24 | 36.6 | > 50 | 5 | Activity [14]: inactive; Activity [15]: inactive; Activity [16]: Active; Activity [17]: Active; Activity [18]: inactive
OC[C@H]1O[C@@H](n2cnc3c(NCc4ccc(-c5cccc(C(F)(F)F)c5)cc4)ncnc32)[C@H](O)[C@@H]1O | 6 | 31 | 36.7 | > 50 | 6.8 | CC50 at 24 h [19]: > 50 µM; CC50 at 24 h [20]: > 50 µM; Activity [14]: inactive; Activity [15]: inactive; Activity [16]: Active; Activity [17]: Active; Activity [18]: inactive
Nc1ncnc2c1ncn2[C@@H]1O[C@H](CO)[C@@H](F)[C@H]1O |  |  |  |  |  | EC50 [21]: 1.6 µM
Nc1onc(C(=O)OCC23CC4CC(CC(C4)C2)C3)c1CCc1ccccc1 |  | 2.2 | > 100 | > 100 |  | EC50 [22]: 1.8 µM; EC50 [23]: 1.8 µM
OC[C@H]1O[C@@H](n2cnc3c(NCc4ccc(C#Cc5ccccc5)cc4)ncnc32)[C@H](O)[C@@H]1O | 36.6 | 33 | > 50 | > 50 | 9.7 | 
OC[C@H]1O[C@@H](n2cnc3c(NCc4ccc(C(F)(F)F)cc4)ncnc32)[C@H](O)[C@@H]1O | > 50 | > 50 | > 50 | > 50 | 7 | 
OC[C@H]1O[C@@H](n2cnc3c(NCc4ccc(C#CC5CCCC5)cc4)ncnc32)[C@H](O)[C@@H]1O | 8 | 17.8 | 37 | 38 | 18 | 
OC[C@H]1O[C@@H](n2cnc3c(NCc4ccc(-c5ccccc5)cc4)ncnc32)[C@H](O)[C@@H]1O | > 50 | > 50 | > 50 | > 50 | 13 | CC50 at 24 h [19]: > 50 µM; CC50 at 24 h [20]: > 50 µM
OC[C@H]1O[C@@H](n2cnc3c(NCc4ccc(-c5ccccc5C(F)(F)F)cc4)ncnc32)[C@H](O)[C@@H]1O | 17 | 46 | > 50 | > 41 | 24 | CC50 at 24 h [19]: > 50 µM; CC50 at 24 h [20]: > 50 µM
C[C@@]1(O)[C@H](O)[C@@H](CO)O[C@H]1n1ccc2c(N)ncnc21 [BETA-2'-C-METHYL-7-DEAZA-ADENOSINE] |  |  |  |  |  | EC50 [13]: 5.1 µM
OC[C@H]1O[C@@H](n2cnc3c(NCc4cccc(C(F)(F)F)c4)ncnc32)[C@H](O)[C@@H]1O | > 50 | > 50 | > 50 | > 50 | 8 | CC50 [9]: > 235 µM
OC[C@H]1O[C@@H](n2cnc3c(NCc4cc(C(F)(F)F)cc(C(F)(F)F)c4)ncnc32)[C@H](O)[C@@H]1O | > 50 | > 50 | > 50 | > 50 | 16 | 
C[C@@]1(O)[C@H](O)[C@@H](CO)O[C@H]1n1ccc(N)nc1=O |  |  |  |  |  | EC50 [13]: 14.2 µM
